From ChEMBL document CHEMBL5154942, “Discovery of Clinical Candidate NTQ1062 as a Potent and Bioavailable Akt Inhibitor for the Treatment of Human Tumors” (J Med Chem, 2022)
Active and inactive are the calls of the source. The calls are words filed in the database; no cut-off is given here.

Experiments:
[1] = system: LNCaP; test: In vivo antitumor activity against human LNCap cells xenografted in NCG mouse assessed as tumor growth inhibition at 50 mg/kg administered once daily for 18 to 21 days relative to control; assay type: functional; conditions: time 18-21 day, read-out: TGI
[2] = molecular target: Cytochrome P450 2D6 (Homo sapiens, UniProt P10635); test: Inhibition of CYP2D6 in human liver microsomes at 0.01 to 30 uM using dextromethorphan as substrate in presence of NADPH by UPLC-MS/MS analysis; assay type: ADME, Microsome
[3] = Toxicity in NCG mouse xenografted with human LNCaP cells assessed as tolerability at 12.5 to 50 mg/kg administered for 18 days; assay type: organism-based; conditions: in vivo, 432 h, dose 12.5-50 mg/kg, time 18 day
[4] = Tmax in Sprague-Dawley rat at 10 mg/kg, ig by UPLC-MS/MS analysis; assay type: ADME, organism-based; conditions: in vivo, po, time < 24 hrs
[5] = system: LNCaP; test: Induction of cell cycle arrest in human LNCap cells assessed as accumulation at G0/G1 phase at 0.2 uM incubated for 24 hrs by flow cytometry (reference value: 58.60 %); assay type: functional
[6] = AUC (0 to t) in crab-eating monkey at 3 mg/kg, iv measured upto 24 hrs by UPLC-MS/MS analysis; assay type: ADME, organism-based, Macaca fascicularis; set-up: dose 3 mg/kg, time < 24 hrs, route iv; conditions: cynomolgus monkey, in vivo
[7] = Metabolic stability in CD-1 mouse liver microsomes assessed hepatic clearance at 1 uM measured after 60 mins by LC-MS/MS analysis; assay type: ADME, Microsome; conditions: 1 h
[8] = Metabolic stability in Sprague-Dawley rat liver microsomes assessed as half life at 1 uM measured after 60 mins by LC-MS/MS analysis; assay type: ADME, Microsome
[9] = Metabolic stability in Crab eating monkey liver microsomes assessed as intrinsic clearance at 1 uM measured after 60 mins by LC-MS/MS analysis; assay type: ADME, Macaca fascicularis, Microsome; conditions: cynomolgus monkey, 1 h
[10] = system: LNCaP; test: Induction of apoptosis in human LNCaP cells assessed as necrotic cells at […] incubated for 72 hrs by annexin V/PI double staining based flow cytometry method (reference value: 2.41%); assay type: functional
[11] = molecular target: Cytochrome P450 2C19 (Homo sapiens, UniProt P33261); test: Inhibition of CYP2C19 in human liver microsomes at 0.01 to 30 uM using mephenytoin as substrate in presence of NADPH by UPLC-MS/MS analysis; assay type: ADME, Microsome
[12] = Metabolic stability in Sprague-Dawley rat liver microsomes assessed as parent compound remaining at 1 uM measured after 60 mins by UPLC-MS/MS analysis; assay type: ADME, Microsome; conditions: read-out: Stability
[13] = Cmax in crab-eating monkey at 6 mg/kg, ig by UPLC-MS/MS analysis; assay type: ADME, organism-based, Macaca fascicularis; set-up: dose 6 mg/kg, route ig; conditions: cynomolgus monkey, in vivo, po
[14] = Metabolic stability in Beagle dog liver microsomes assessed as parent compound remaining at 1 uM measured after 60 mins by UPLC-MS/MS analysis; assay type: ADME, Canis lupus familiaris, Microsome; conditions: read-out: Stability
[15] = Metabolic stability in human […] liver microsomes assessed as half life at 1 uM measured after 60 mins by LC-MS/MS analysis; assay type: ADME, Microsome
[16] = Bioavailability in Sprague-Dawley rat at 10 mg/kg, ig by UPLC-MS/MS analysis; assay type: ADME, organism-based; conditions: in vivo, po
[17] = Cmax in NCG mouse xenografted with human LNCaP cells at 50 mg/kg administered once daily for 18 to 21 days and measured upto 10 hrs post last dose by LC-MS/MS analysis; assay type: ADME, organism-based; set-up: dose 50 mg/kg, time 18-21 day; conditions: in vivo
[18] = system: LNCaP; test: Induction of apoptosis in human LNCaP cells assessed as late apoptotic cells at 1.25 uM incubated for 72 hrs by annexin V/PI double staining based flow cytometry method (reference value: 2.75 %); assay type: functional
[19] = Metabolic stability in Beagle dog liver microsomes assessed hepatic clearance at 1 uM measured after 60 mins by LC-MS/MS analysis; assay type: ADME, Canis lupus familiaris, Microsome; conditions: 1 h
[20] = Metabolic stability in Crab eating monkey liver microsomes assessed hepatic clearance at 1 uM measured after 60 mins by LC-MS/MS analysis; assay type: ADME, Macaca fascicularis, Microsome; conditions: cynomolgus monkey, 1 h
[21] = system: LNCaP; test: Induction of apoptosis in human LNCaP cells assessed as necrotic cells at 1.25 uM incubated for 72 hrs by annexin V/PI double staining based flow cytometry method (reference value: 2.41%); assay type: functional
[22] = Metabolic stability in CD-1 mouse liver microsomes assessed as parent compound remaining at 1 uM measured after 60 mins by UPLC-MS/MS analysis; assay type: ADME, Microsome; conditions: read-out: Stability
[23] = system: LNCaP; test: Induction of apoptosis in human LNCaP cells assessed as viable cells at […] incubated for 72 hrs by annexin V/PI double staining based flow cytometry method (reference value: 93.63 %); assay type: functional; conditions: read-out: Activity
[24] = Metabolic stability in Crab eating monkey liver microsomes assessed as half life at 1 uM measured after 60 mins by LC-MS/MS analysis; assay type: ADME, Macaca fascicularis, Microsome; conditions: cynomolgus monkey
[25] = Tmax in NCG mouse xenografted with human LNCaP cells at 50 mg/kg administered once daily for 18 to 21 days and measured upto 10 hrs post last dose by LC-MS/MS analysis; assay type: ADME, organism-based; conditions: in vivo, time 18-21 day
[26] = AUC (0 to infinity) in Sprague-Dawley rat at 10 mg/kg, ig by UPLC-MS/MS analysis; assay type: ADME, organism-based; set-up: time infinity, dose 10 mg/kg, route ig; conditions: in vivo, po
[27] = AUC (0 to t) in NCG mouse xenografted with human LNCaP cells at 25 mg/kg administered daily once for 18 to 21 days and measured upto 10 hrs post last dose by LC-MS/MS analysis; assay type: ADME, organism-based; set-up: time 18-21 day, dose 25 mg/kg; conditions: in vivo
[28] = molecular target: Cytochrome P450 3A4 (Homo sapiens, UniProt P08684); test: Inhibition of CYP3A4 in human liver microsomes at 0.01 to 30 uM […] in presence of NADPH by UPLC-MS/MS analysis; assay type: ADME, Microsome
[29] = Metabolic stability in human liver microsomes assessed hepatic clearance at 1 uM measured after 60 mins by LC-MS/MS analysis; assay type: ADME, Microsome; conditions: 1 h
[30] = Metabolic stability in human liver microsomes assessed as parent compound remaining at 1 uM measured after 60 mins by UPLC-MS/MS analysis; assay type: ADME, Microsome; conditions: read-out: Stability
[31] = molecular target: Protein kinase C alpha type (Homo sapiens) (UniProt P17252); test: Inhibition of PKCalpha (unknown origin) at 1 uM in presence of ATP at Km concentration by mobility shift assay relative to control
[32] = system: LNCaP; test: In vivo inhibition of AKT in human LNCaP cells xenografted in NCG mouse assessed as reduction in PRAS40 phosphorylation at 50 mg/kg administered for 21 days and measured after 4 hrs post last dose by Western blot analysis; assay type: functional, organism-based; conditions: time 21.0 day
[33] = molecular target: Protein kinase C theta type (Homo sapiens) (UniProt Q04759); test: Inhibition of PKCtheta (unknown origin) at 1 uM in presence of ATP at Km concentration by mobility shift assay relative to control
[34] = molecular target: Cytochrome P450 2C9 (Homo sapiens, UniProt P11712); test: Inhibition of CYP2C9 in human liver microsomes at 0.01 to 30 uM using diclofenac as substrate in presence of NADPH by UPLC-MS/MS analysis; assay type: ADME, Microsome
[35] = Half life in Sprague-Dawley rat at 5 mg/kg, iv measured upto 24 hrs by UPLC-MS/MS analysis; assay type: ADME, organism-based; conditions: in vivo

Cytochrome P450 2C19, sequence (P33261 whole entry): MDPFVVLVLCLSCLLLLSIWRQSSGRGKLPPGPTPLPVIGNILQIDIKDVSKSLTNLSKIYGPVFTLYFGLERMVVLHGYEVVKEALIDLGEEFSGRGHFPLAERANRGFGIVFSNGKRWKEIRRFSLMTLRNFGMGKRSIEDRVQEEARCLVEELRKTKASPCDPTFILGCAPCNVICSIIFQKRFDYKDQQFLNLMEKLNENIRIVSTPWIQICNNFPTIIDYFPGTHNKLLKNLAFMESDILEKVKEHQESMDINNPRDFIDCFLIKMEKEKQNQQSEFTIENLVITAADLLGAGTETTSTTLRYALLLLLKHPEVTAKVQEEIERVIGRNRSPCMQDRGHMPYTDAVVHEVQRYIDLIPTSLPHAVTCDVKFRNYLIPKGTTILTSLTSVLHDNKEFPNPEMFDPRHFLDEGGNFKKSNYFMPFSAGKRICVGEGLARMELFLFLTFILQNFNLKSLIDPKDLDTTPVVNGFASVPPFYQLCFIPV
Protein kinase C theta type (Homo sapiens), sequence (Q04759 whole entry, looked up): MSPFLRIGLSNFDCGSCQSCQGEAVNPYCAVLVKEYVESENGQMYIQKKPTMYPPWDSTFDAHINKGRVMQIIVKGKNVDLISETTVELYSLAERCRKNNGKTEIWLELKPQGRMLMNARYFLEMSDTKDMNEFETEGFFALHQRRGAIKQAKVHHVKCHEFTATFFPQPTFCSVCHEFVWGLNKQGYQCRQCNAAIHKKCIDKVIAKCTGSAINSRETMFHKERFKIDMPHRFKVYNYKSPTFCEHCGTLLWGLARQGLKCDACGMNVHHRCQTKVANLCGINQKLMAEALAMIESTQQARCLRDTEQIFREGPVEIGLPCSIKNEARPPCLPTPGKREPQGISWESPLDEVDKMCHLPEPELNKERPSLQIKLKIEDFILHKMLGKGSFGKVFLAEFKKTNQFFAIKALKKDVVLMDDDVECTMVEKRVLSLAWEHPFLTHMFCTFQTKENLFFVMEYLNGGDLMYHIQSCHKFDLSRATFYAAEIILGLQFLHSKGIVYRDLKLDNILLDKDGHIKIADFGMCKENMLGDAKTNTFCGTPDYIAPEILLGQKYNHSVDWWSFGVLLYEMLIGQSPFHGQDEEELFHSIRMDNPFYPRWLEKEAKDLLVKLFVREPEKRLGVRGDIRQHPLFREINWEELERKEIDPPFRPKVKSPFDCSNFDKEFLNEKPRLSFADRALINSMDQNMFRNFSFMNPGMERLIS
Cytochrome P450 3A4, sequence (P08684 whole entry): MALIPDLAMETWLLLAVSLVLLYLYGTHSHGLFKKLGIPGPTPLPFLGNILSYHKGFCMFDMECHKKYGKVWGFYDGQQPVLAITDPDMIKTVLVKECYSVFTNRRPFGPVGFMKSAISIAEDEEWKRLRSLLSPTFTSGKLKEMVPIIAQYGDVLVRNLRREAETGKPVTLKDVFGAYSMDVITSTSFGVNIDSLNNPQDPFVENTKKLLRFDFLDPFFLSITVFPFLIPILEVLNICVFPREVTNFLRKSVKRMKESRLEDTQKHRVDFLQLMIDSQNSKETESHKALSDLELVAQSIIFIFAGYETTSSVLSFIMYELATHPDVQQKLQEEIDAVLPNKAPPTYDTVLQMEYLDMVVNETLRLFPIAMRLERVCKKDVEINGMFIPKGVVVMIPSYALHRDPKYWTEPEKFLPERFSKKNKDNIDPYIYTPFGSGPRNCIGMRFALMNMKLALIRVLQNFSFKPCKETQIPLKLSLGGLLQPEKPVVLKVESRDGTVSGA
Cytochrome P450 2C9, sequence (P11712 whole entry): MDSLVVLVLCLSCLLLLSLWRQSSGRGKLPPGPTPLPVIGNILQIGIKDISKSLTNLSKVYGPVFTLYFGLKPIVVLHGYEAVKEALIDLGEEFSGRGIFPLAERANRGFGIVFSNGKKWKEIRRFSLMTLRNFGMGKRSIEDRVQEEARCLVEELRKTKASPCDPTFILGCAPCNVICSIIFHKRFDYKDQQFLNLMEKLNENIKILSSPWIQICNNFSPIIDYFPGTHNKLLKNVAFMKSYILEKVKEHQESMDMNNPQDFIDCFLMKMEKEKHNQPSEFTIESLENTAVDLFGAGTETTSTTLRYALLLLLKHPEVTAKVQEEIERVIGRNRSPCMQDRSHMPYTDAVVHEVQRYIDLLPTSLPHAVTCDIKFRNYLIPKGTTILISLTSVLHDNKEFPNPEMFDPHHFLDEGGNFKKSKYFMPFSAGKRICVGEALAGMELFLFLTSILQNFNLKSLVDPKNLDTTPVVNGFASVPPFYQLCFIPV
Cytochrome P450 2D6, sequence (P10635 whole entry): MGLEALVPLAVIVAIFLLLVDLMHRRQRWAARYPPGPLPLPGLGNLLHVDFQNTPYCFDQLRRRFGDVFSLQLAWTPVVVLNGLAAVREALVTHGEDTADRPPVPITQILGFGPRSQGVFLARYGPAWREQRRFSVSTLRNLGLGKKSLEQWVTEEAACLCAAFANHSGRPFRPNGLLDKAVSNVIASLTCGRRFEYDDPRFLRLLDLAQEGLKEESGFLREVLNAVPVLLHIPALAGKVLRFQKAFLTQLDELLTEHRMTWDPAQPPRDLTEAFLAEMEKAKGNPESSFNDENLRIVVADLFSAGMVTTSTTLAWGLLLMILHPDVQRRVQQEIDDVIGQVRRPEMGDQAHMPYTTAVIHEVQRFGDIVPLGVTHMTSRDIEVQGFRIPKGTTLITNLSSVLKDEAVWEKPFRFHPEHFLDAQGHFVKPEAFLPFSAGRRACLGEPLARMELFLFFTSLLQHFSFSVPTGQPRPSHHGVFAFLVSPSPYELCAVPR

With `CC(C)NC[C@@H](C(=O)N1CCN(c2ncnc3c2[C@H](C)CC(=O)N3)[C@H]2C[C@H]21)c1ccc(Cl)cc1` as the compound, how does the inhibition in vivo at 50 mg/kg [1] read?
The inhibition in vivo at 50 mg/kg was 95.5%.

And the IC50 [2]?
Its IC50 is 20.6 µM.

And the Activity [3]?
The Activity was “Non-Toxic”.

What about the Tmax [4] of the same compound?
Its Tmax is 2 h.

What about the Activity [5] of the same compound?
Its Activity is 82.42%.

What about the AUC(0-t) at 24 h [6] of the same compound?
Its AUC(0-t) at 24 h is 1780 ng·h/mL.

And the CLH [7]?
The CLH was < 0.762 mL/h/kg.

What about the half-life at 1 µM [8] of the same compound?
Its half-life at 1 µM is > 3.82 h.

What about the CLH [9] of the same compound?
The CLH was 2.94 mL/h/kg.

What about the Activity ([10]; dose 0.62 µM) of the same compound?
Its Activity is 4.72%.

What about the Activity ([10]; dose 2.5 µM) of the same compound?
The Activity was 6%.

And the IC50 [11]?
The IC50 was > 50 µM.

What about the remaining at 1 h, 1 µM [12] of the same compound?
The remaining at 1 h, 1 µM was 88.8%.

What about the Cmax [13] of the same compound?
The Cmax was 237 ng/mL.

And the remaining at 1 h, 1 µM [14]?
The remaining at 1 h, 1 µM was 53.6%.

What about the half-life at 1 µM [15] of the same compound?
The half-life at 1 µM was 1.52 h.

What about the bioavailability [16] of the same compound?
Its bioavailability is 110%.

And the Cmax [17]?
The Cmax was 3050 ng/mL.

And the Activity [18]?
Its Activity is 12.65%.

And the CLH [19]?
The CLH was 1.01 mL/h/kg.

What about the CLH [20] of the same compound?
Its CLH is 1.51 mL/h/kg.

What about the Activity [21] of the same compound?
Its Activity is 4.92%.

And the remaining at 1 h, 1 µM [22]?
The remaining at 1 h, 1 µM was 92.3%.

What about the viability at […] ([23]; dose 0.62 µM) of the same compound?
Its viability at […] is 79.7%.

What about the viability at […] ([23]; dose 2.5 µM) of the same compound?
The viability at […] was 55%.

And the half-life at 1 µM [24]?
The half-life at 1 µM was 0.472 h.

And the Tmax [25]?
The Tmax was 1 h.

And the AUC(0-inf) [26]?
Its AUC(0-inf) is 3890 ng·h/mL.

What about the AUC(0-t) [27] of the same compound?
The AUC(0-t) was 13500 ng·h/mL.

What about the IC50 [28] of the same compound?
Its IC50 is 15.2 µM.

What about the CLH [29] of the same compound?
The CLH was 538 mL/h/kg.

What about the remaining at 1 h, 1 µM [30] of the same compound?
The remaining at 1 h, 1 µM was 62.9%.

What about the inhibition [31] of the same compound?
Its inhibition is 90%.

What about the Activity [32] of the same compound?
Its Activity is “Active”.

And the inhibition [33]?
The inhibition was 90%.

And the IC50 [34]?
The IC50 was > 50 µM.

What about the half-life [35] of the same compound?
Its half-life is 2.97 h.
